# Assay results published in US20250230193A1, “CYCLIC COMPOUND HAVING SELECTIVE KRAS INHIBITORY EFFECT ON HRAS AND NRAS” (CHUGAI SEIYAKU KABUSHIKI KAISHA, priority 2022, published 2025).
# Experiments:
# [1] = molecular target: GDP-bound HRAS wild-type protein (Homo sapiens, UniProt P01112); assay: Binding to HRAS by surface plasmon resonance (SPR), Single Cycle Kinetics; details: KD ratio HRAS/KRAS, class symbols
# [2] = molecular target: GDP-bound NRAS wild-type protein (Homo sapiens, UniProt P01111); assay: Binding to NRAS by surface plasmon resonance (SPR), Single Cycle Kinetics; details: KD ratio NRAS/KRAS, class symbols
# GDP-bound NRAS wild-type protein, sequence (P01111 whole entry): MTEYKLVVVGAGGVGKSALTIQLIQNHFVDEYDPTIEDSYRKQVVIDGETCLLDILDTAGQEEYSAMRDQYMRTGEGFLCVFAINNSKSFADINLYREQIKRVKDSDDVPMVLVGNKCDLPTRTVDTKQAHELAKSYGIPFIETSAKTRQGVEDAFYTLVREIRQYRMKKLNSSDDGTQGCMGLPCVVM
# GDP-bound HRAS wild-type protein, sequence (P01112 whole entry): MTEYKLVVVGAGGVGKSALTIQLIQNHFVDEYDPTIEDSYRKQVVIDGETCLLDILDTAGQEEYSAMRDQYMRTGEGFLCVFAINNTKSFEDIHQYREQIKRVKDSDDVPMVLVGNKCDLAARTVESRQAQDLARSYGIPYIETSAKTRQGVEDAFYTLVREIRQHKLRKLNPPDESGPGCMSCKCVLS
Compound,HRAS/KRAS (ratio of KD value with respect to GDP-bound HRAS wild-type protein to KD value with respect to KRAS) [1],NRAS/KRAS (ratio of KD value with respect to GDP-bound NRAS wild-type protein to KD value with respect to KRAS) [2]
CCC[C@H]1C(=O)N[C@@H]([C@@H](C)CC)C(=O)N(C2CC2)CC(=O)N(C)[C@H]2C/C=C\CCN(C2=O)[C@@H](Cc2ccc(C)cc2)C(=O)N(C)CC(=O)N[C@@H](CCc2ccc(C(F)(F)F)c(OC)c2)C(=O)N2C[C@H](OCC)C[C@H]2C(=O)NC2(CC(C)(C)C2)C(=O)N(C)[C@@H](CC(C)(C)C)C(=O)N(C)[C@H](C(=O)N(C)C)CC(=O)N1C [PP2722],B (a compound having 3 or more and less than 10 is denoted as B),B (a compound having 3 or more and less than 10 is denoted as B)
CCOC[C@H]1C(=O)N[C@@H]([C@@H](C)CC)C(=O)N(C2CC2)CC(=O)N(C)[C@H]2C/C=C\CCN(C2=O)[C@@H](Cc2ccc(C)cc2)C(=O)N(C)CC(=O)N[C@@H](CCc2ccc(C(F)(F)F)c(OC)c2)C(=O)N2C[C@H](OCC)C[C@H]2C(=O)NC2(CC(C)(C)C2)C(=O)N(C)[C@@H](CC(C)(C)C)C(=O)N(C)[C@H](C(=O)N(C)C)CC(=O)N1C [PP2724],B (a compound having 3 or more and less than 10 is denoted as B),A (a compound having 10 or more and less than 20 is denoted as A)
CCC[C@H]1C(=O)N[C@@H]([C@@H](C)CC)C(=O)N(C2CC2)CC(=O)N(C)[C@H]2C/C=C\CCN(C2=O)[C@@H](Cc2ccc(C)cc2)C(=O)N(C)CC(=O)N[C@@H](CCc2ccc(Cl)c(Cl)c2)C(=O)N2C[C@H](OCC)C[C@H]2C(=O)NC2(CC(C)(C)C2)C(=O)N(C)[C@@H](CC(C)(C)C)C(=O)N(C)[C@H](C(=O)N(C)C)CC(=O)N1C [PP2726],A (a compound having 10 or more and less than 20 is denoted as A),AA (a compound having 20 or more is denoted as AA)
CCOC[C@H]1C(=O)N[C@@H]([C@@H](C)CC)C(=O)N(C2CC2)CC(=O)N(C)[C@H]2C/C=C\CCN(C2=O)[C@@H](Cc2ccc(C)cc2)C(=O)N(C)CC(=O)N[C@@H](CCc2ccc(Cl)c(Cl)c2)C(=O)N2C[C@H](OCC)C[C@H]2C(=O)NC2(CC(C)(C)C2)C(=O)N(C)[C@@H](CC(C)(C)C)C(=O)N(C)[C@H](C(=O)N(C)C)CC(=O)N1C [PP2728],A (a compound having 10 or more and less than 20 is denoted as A),AA (a compound having 20 or more is denoted as AA)
CCOC[C@H]1C(=O)N[C@@H]([C@@H](C)CC)C(=O)N(C)CC(=O)N(C)[C@H]2C/C=C\CCN(C2=O)[C@@H](Cc2ccc(C(F)(F)F)cc2)C(=O)N(C)CC(=O)N[C@@H](CCc2cc(F)c(C(F)(F)F)c(F)c2)C(=O)N2C[C@H](OCC)C[C@H]2C(=O)NC2(CC(C)(C)C2)C(=O)N(C)[C@@H](CC(C)(C)C)C(=O)N(C)[C@H](C(=O)N(C)C)CC(=O)N1C [PP2732],A (a compound having 10 or more and less than 20 is denoted as A),A (a compound having 10 or more and less than 20 is denoted as A)
CCC[C@H]1C(=O)N[C@@H]([C@@H](C)CC)C(=O)N(C)CC(=O)N(C)[C@H]2C/C=C\CCN(C2=O)[C@@H](Cc2ccc(C(F)(F)F)cc2)C(=O)N(C)CC(=O)N[C@@H](CCc2ccc(C(F)(F)F)c(OC)c2)C(=O)N2C[C@H](OCC)C[C@H]2C(=O)NC2(CC(C)(C)C2)C(=O)N(C)[C@@H](CC(C)(C)C)C(=O)N(C)[C@H](C(=O)N(C)C)CC(=O)N1C [PP2734],B (a compound having 3 or more and less than 10 is denoted as B),A (a compound having 10 or more and less than 20 is denoted as A)
CCOC[C@H]1C(=O)N[C@@H]([C@@H](C)CC)C(=O)N(C)CC(=O)N(C)[C@H]2C/C=C\CCN(C2=O)[C@@H](Cc2ccc(C(F)(F)F)cc2)C(=O)N(C)CC(=O)N[C@@H](CCc2ccc(C(F)(F)F)c(OC)c2)C(=O)N2C[C@H](OCC)C[C@H]2C(=O)NC2(CC(C)(C)C2)C(=O)N(C)[C@@H](CC(C)(C)C)C(=O)N(C)[C@H](C(=O)N(C)C)CC(=O)N1C [PP2736],A (a compound having 10 or more and less than 20 is denoted as A),A (a compound having 10 or more and less than 20 is denoted as A)
CCC[C@H]1C(=O)N[C@@H]([C@@H](C)CC)C(=O)N(C)CC(=O)N(C)[C@H]2C/C=C\CCN(C2=O)[C@@H](Cc2ccc(C(F)(F)F)cc2)C(=O)N(C)CC(=O)N[C@@H](CCc2ccc(Cl)c(Cl)c2)C(=O)N2C[C@H](OCC)C[C@H]2C(=O)NC2(CC(C)(C)C2)C(=O)N(C)[C@@H](CC(C)(C)C)C(=O)N(C)[C@H](C(=O)N(C)C)CC(=O)N1C [PP2738],A (a compound having 10 or more and less than 20 is denoted as A),AA (a compound having 20 or more is denoted as AA)
CCOC[C@H]1C(=O)N[C@@H]([C@@H](C)CC)C(=O)N(C)CC(=O)N(C)[C@H]2C/C=C\CCN(C2=O)[C@@H](Cc2ccc(C(F)(F)F)cc2)C(=O)N(C)CC(=O)N[C@@H](CCc2ccc(Cl)c(Cl)c2)C(=O)N2C[C@H](OCC)C[C@H]2C(=O)NC2(CC(C)(C)C2)C(=O)N(C)[C@@H](CC(C)(C)C)C(=O)N(C)[C@H](C(=O)N(C)C)CC(=O)N1C [PP2740],A (a compound having 10 or more and less than 20 is denoted as A),AA (a compound having 20 or more is denoted as AA)
CCC[C@H]1C(=O)N[C@@H]([C@@H](C)CC)C(=O)N(C2CC2)CC(=O)N(C)[C@H]2C/C=C\CCN(C2=O)[C@@H](Cc2ccc(C(F)(F)F)cc2)C(=O)N(C)CC(=O)N[C@@H](CCc2cc(F)c(C(F)(F)F)c(F)c2)C(=O)N2C[C@H](OCC)C[C@H]2C(=O)NC2(CC(C)(C)C2)C(=O)N(C)[C@@H](CC(C)(C)C)C(=O)N(C)[C@H](C(=O)N(C)C)CC(=O)N1C [PP2742],A (a compound having 10 or more and less than 20 is denoted as A),AA (a compound having 20 or more is denoted as AA)
CCO[C@@H]1C[C@H]2C(=O)NC3(CC(C)(C)C3)C(=O)N(C)[C@@H](CC(C)(C)C)C(=O)N(C)[C@H](C(=O)N(C)C)CC(=O)N(C)[C@@H](COC)C(=O)N[C@@H]([C@@H](C)CC)C(=O)N(C3CC3)CC(=O)N(C)[C@H]3C/C=C\CCN(C3=O)[C@@H](Cc3ccc(C(F)(F)F)cc3)C(=O)N(C)CC(=O)N[C@@H](CCc3cc(F)c(C(F)(F)F)c(F)c3)C(=O)N2C1 [PP2744],A (a compound having 10 or more and less than 20 is denoted as A),A (a compound having 10 or more and less than 20 is denoted as A)
CCC[C@H]1C(=O)N[C@@H]([C@@H](C)CC)C(=O)N(C2CC2)CC(=O)N(C)[C@H]2C/C=C\CCN(C2=O)[C@@H](Cc2ccc(C(F)(F)F)cc2)C(=O)N(C)CC(=O)N[C@@H](CCc2ccc(C(F)(F)F)c(OC)c2)C(=O)N2C[C@H](OCC)C[C@H]2C(=O)NC2(CC(C)(C)C2)C(=O)N(C)[C@@H](CC(C)(C)C)C(=O)N(C)[C@H](C(=O)N(C)C)CC(=O)N1C [PP2746],A (a compound having 10 or more and less than 20 is denoted as A),A (a compound having 10 or more and less than 20 is denoted as A)
CCO[C@@H]1C[C@H]2C(=O)NC3(CC(C)(C)C3)C(=O)N(C)[C@@H](CC(C)(C)C)C(=O)N(C)[C@H](C(=O)N(C)C)CC(=O)N(C)[C@@H](COC)C(=O)N[C@@H]([C@@H](C)CC)C(=O)N(C3CC3)CC(=O)N(C)[C@H]3C/C=C\CCN(C3=O)[C@@H](Cc3ccc(C(F)(F)F)cc3)C(=O)N(C)CC(=O)N[C@@H](CCc3ccc(C(F)(F)F)c(OC)c3)C(=O)N2C1 [PP2748],A (a compound having 10 or more and less than 20 is denoted as A),A (a compound having 10 or more and less than 20 is denoted as A)
CCC[C@H]1C(=O)N[C@@H]([C@@H](C)CC)C(=O)N(C2CC2)CC(=O)N(C)[C@H]2C/C=C\CCN(C2=O)[C@@H](Cc2ccc(C(F)(F)F)cc2)C(=O)N(C)CC(=O)N[C@@H](CCc2ccc(Cl)c(Cl)c2)C(=O)N2C[C@H](OCC)C[C@H]2C(=O)NC2(CC(C)(C)C2)C(=O)N(C)[C@@H](CC(C)(C)C)C(=O)N(C)[C@H](C(=O)N(C)C)CC(=O)N1C [PP2749],A (a compound having 10 or more and less than 20 is denoted as A),AA (a compound having 20 or more is denoted as AA)
CCO[C@@H]1C[C@H]2C(=O)NC3(CC(C)(C)C3)C(=O)N(C)[C@@H](CC(C)(C)C)C(=O)N(C)[C@H](C(=O)N(C)C)CC(=O)N(C)[C@@H](COC)C(=O)N[C@@H]([C@@H](C)CC)C(=O)N(C3CC3)CC(=O)N(C)[C@H]3C/C=C\CCN(C3=O)[C@@H](Cc3ccc(C(F)(F)F)cc3)C(=O)N(C)CC(=O)N[C@@H](CCc3ccc(Cl)c(Cl)c3)C(=O)N2C1 [PP2750],A (a compound having 10 or more and less than 20 is denoted as A),AA (a compound having 20 or more is denoted as AA)
